Measured values taken from article PMC8286823, “Identifying SARS-CoV-2 antiviral compounds by screening for small molecule inhibitors of nsp15 endoribonuclease” (Biochemical Journal, 2021).
Values joined by “and” are separate entries in the source; they are usually repeats but may differ in a detail not shown here. Equal entries are not always repeated. Structures can show the parent of a compound that is named as a salt.

Assays:
[1] = biological target: T1, SARS-CoV-2 nsp15 endoribonuclease (Severe acute respiratory syndrome coronavirus 2, UniProt P0DTD1); experiment: biochemical; type: biochemical
[2] = biological target: T1, SARS-CoV-2 nsp15 endoribonuclease; type: biochemical; conditions: 100 µM compound, 500 nM nsp15, 1 µM 16 nt U substrate; for mean cleavage (%): 20 min at 30°C, n=3
[3] = biological target: T1, SARS-CoV-2 nsp15 endoribonuclease
[4] = biological target: T2, Pierce Universal Nuclease (benzonase) (Serratia marcescens, UniProt P13717); experiment: Gel-based nuclease specificity assay with 16 nt U substrate, benzonase; type: biochemical; conditions: 0, 11, 33 or 100 µM; 25 mU/µl Pierce Universal Nuclease, 1 µM 16 nt U substrate
T2 construct: purchased Pierce
T2 sequence (P13717 22-266): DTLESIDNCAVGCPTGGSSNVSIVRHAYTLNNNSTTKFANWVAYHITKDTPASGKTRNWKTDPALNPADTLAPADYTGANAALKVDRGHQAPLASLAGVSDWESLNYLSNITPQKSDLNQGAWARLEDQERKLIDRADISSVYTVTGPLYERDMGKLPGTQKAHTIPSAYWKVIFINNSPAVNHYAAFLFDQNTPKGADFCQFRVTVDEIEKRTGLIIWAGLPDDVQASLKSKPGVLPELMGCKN

RNase A = RNase A (Bos taurus, UniProt P61823); experiment: Gel-based nuclease specificity assay with 16 nt U substrate, RNase A; type: biochemical; conditions: 0, 11, 33 or 100 µM; 1 pg/µl RNase A, 1 µM 16 nt U substrate
RNase A, sequence (P61823 27-150): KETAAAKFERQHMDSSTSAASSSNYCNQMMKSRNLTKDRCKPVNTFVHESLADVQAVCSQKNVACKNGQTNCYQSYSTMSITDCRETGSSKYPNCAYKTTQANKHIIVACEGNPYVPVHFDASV

VERO E6 cells = experiment: Cell survival (cell area, DRAQ5) in SARS-CoV-2 infectivity assay; type: cell-based, Chlorocebus sabaeus; conditions: infected VERO E6 cells, 22 h
Procedure: (§1) We infected VERO E6 cells with SARS-CoV-2 in the presence of a range of concentrations of NSC95397 and quantified viral infected area (Figure 5A,B). NSC95397 sacrificed VERO E6 cells at concentrations above 10 μM, consistent with previous reports that NSC95397 is an inhibitor of the Cdc25 protein phosphatase and multiple protein kinases [[39–42]]. This made it more difficult to assess viral growth. With the aim of finding a concentration of NSC95397 that inhibited viral growth without killing the cells, we performed a second titration at lower NSC95397 concentrations (Figure 5C,D).
(§2) Figure 5. […] (A) SARS-CoV-2 infectivity assays in the presence of NSC95397. DNA in cells was stained with DRAQ5, and virus was immunostained with anti-N antibody. (B) Quantification of normalised viral area (black) and cell area (gray) ±SD. […] (D) Quantification of C as in B. (E) SARS-CoV-2 infectivity assays as in C in the presence of 0.5 µM remdesivir. (F) Quantification of E as in B, note that black control line is quantification of control experiment in C.
(§3) Infectivity assays were performed as in the accompanying manuscript (see Zeng et al.). […] The whole well area was delineated, and area of Alexa488/N protein and DRAQ5/DNA signals were determined for each well. […]

SARS-CoV-2 = SARS-CoV-2 infectivity assay in VERO E6 cells (viral area, anti-N staining); type: cell-based
Procedure: as §1, §2, §3

SMILES	mean cleavage (%) [2]	activity [3]	other results
Cc1c(COc2cc(OCc3cccc(C#N)c3)c(CN3C[C@H](O)C[C@@H]3C(=O)O)cc2Cl)cccc1-c1ccc2c(c1)OCCO2 [BMS-1166]	58%		inhibition of nsp15 endoribonuclease activity in plate reader [1]: able to inhibit nsp15 endoribonuclease activity; effect on nsp15 endoribonuclease activity in gel-based assay [2]: did not inhibit the enzyme even at 100 µM
O=c1cc(-c2ccccc2)oc2cc(O)c(O)c(O)c12 [Baicalein]	64%	80%	
C=C(C)[C@@H]1CC[C@]2(C(=O)O)CC[C@]3(C)[C@H](CC[C@@H]4[C@@]5(C)CC[C@H](O)C(C)(C)[C@@H]5CC[C@]43C)[C@@H]12 [Betulinic acid]	51%		
Cl.Cl.NCCC(=O)NCCc1cnc[nH]1 [Carcinine dihydrochloride]	76%		
COc1cc(/C=C/C(=O)CC(=O)/C=C/c2ccc(O)c(OC)c2)ccc1O [Curcumin]		95% and 100%	
CN1C[C@H](C(=O)N[C@]2(C)O[C@@]3(O)[C@@H]4CCCN4C(=O)[C@H](Cc4ccccc4)N3C2=O)C[C@@H]2c3cccc4[nH]cc(c34)C[C@H]21 [Dihydroergotamine mesylate]		95% and 98%	
CN1C[C@H](C(=O)N[C@]2(C)O[C@@]3(O)[C@@H]4CCCN4C(=O)[C@H](Cc4ccccc4)N3C2=O)C=C2c3cccc4[nH]cc(c34)C[C@H]21 [Ergotamine]		99% and 100%	
O=C1c2cc([N+](=O)[O-])ccc2-n2c1nc1ccccc1c2=O [GNF-PF-3777]	60%		effect on nsp15 endoribonuclease activity in gel-based assay [2]: had no effect even at 100 µM
Cn1cnc2nc(NCCO)nc(NCc3ccccc3)c21 [Iso-Olomoucine]	60%		
CC(C)(C)c1nc2c3cc[nH]c(=O)c3c3cc(F)ccc3c2[nH]1 [JAK Inhibitor I]	65%		
CCCNS(=O)(=O)Nc1ncnc(OCCOc2ncc(Br)cn2)c1-c1ccc(Br)cc1 [Macitentan]	64%		
CC#C[C@]1(O)CC[C@H]2[C@@H]3CCC4=CC(=O)CCC4=C3[C@@H](c3ccc(N(C)C)cc3)C[C@@]21C [Mifepristone]	63%	85%	
O=Nc1ccc2oc(=O)ccc2c1 [NOBP]	63%		
O=C1C(SCCO)=C(SCCO)C(=O)c2ccccc21 [NSC95397]	9%		Hill slope [1]: -2.5; IC50 [1]: 43 µM; inhibition of nsp15 endoribonuclease activity in plate reader [1]: able to inhibit nsp15 endoribonuclease activity; effect on nuclease cleavage by benzonase [4]: did not affect nuclease cleavage; effect on nuclease cleavage by RNase A (RNase A): did not affect nuclease cleavage; concentration that sacrificed VERO E6 cells (VERO E6 cells): above 10 μM; SARS-CoV-2 viral growth in VERO E6 cells (SARS-CoV-2; MOI 0.5 PFU/cell, 22 h post-infection, titration at lower concentrations): viral growth was not inhibited; additive effect with remdesivir on SARS-CoV-2 infectivity (SARS-CoV-2; VERO E6 cells, NSC95397 titration in the presence of 0.5 µM remdesivir): did not observe any additive effect; effect on nsp15 endoribonuclease activity in gel-based assay [2]: inhibited nsp15 endoribonuclease
CO[C@@H]1[C@@H](OC(N)=O)[C@@H](O)[C@H](Oc2ccc3c(O)c(NC(=O)c4ccc(O)c(CC=C(C)C)c4)c(=O)oc3c2C)OC1(C)C [Novobiocin]		98% and 95%	
Cc1ncc([N+](=O)[O-])n1CC(O)CCl (stereo not drawn) [Ornidazole]	62%	66%	
CC(COc1ccccc1)N(CCCl)Cc1ccccc1 (stereo not drawn) [Phenoxybenzamine]	58%	37%	
Oc1cc2c(cc1O)C(c1ccccc1)CNCC2 (stereo not drawn) [SKF 38393 hydrobromide]	62%	65%	
C[C@H]1CC[C@@]2(OC1)O[C@H]1C[C@H]3[C@@H]4CC[C@@H]5C[C@@H](O)CC[C@]5(C)[C@H]4CC[C@]3(C)[C@H]1[C@@H]2C [Sarsasapogenin]		100% and 96%	
